# Results reported in publication PMC7539012, “Hyperphosphorylated tau aggregation and cytotoxicity modulators screen identified prescription drugs linked to Alzheimer's disease and cognitive functions” (Scientific Reports, 2020).
# Structures can show the parent of a compound that is named as a salt.
# System: T1, 1N4R p-tau
# T1 construct: made in house; host or cells: E. coli (PIMAX system)
# Experiment: p-tau aggregation modulator screen of 1280-compound library (ThS fluorescence net change over 16 h);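 as to ThS net change: 30 µM compound with 6 µM p-tau over 16 h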
# Format: biochemical
# Set-up: key to PTAI>2SD: *: PTAI>2SD
# Conditions: not given
row,SMILES,ThS net change
1,CCC1(C)CC(=O)NC(=O)C1 [Bemegride],431
2,COc1ccc2cc([C@@H](C)C(=O)[O-])ccc2c1.[Na+] [(R) -Naproxen sodium salt],376

# Same assay, conditions: 1280-compound library screen; ThS fluorescence net change over 16 h
row,SMILES,ThS net change
1,CC(C)NCC(O)COc1ccc(COCCOC(C)C)cc1 (stereo not drawn) [Bisoprolol fumarate],409
2,O=C(CCCN1CC=C(n2c(=O)[nH]c3ccccc32)CC1)c1ccc(F)cc1 [Droperidol],412
3,C=CCSCC1Nc2cc(Cl)c(S(N)(=O)=O)cc2S(=O)(=O)N1 (stereo not drawn) [Althiazide],409
4,CCCCNc1ccc(C(=O)OCCN(C)C)cc1.Cl [Tetraca?ne hydrochloride],401
5,Oc1ncnc2[nH]ncc12 [Allopurinol],396
6,CCCOc1ccc(C(=O)OCCN(CC)CC)cc1N [Proparacaine hydrochloride],392
7,O=C(O)CCC(=O)Nc1ccc(S(=O)(=O)Nc2nccs2)cc1 [Succinylsulfathiazole],382
8,CCN(CC)C(=O)c1ccc(O)c(OC)c1 [Ethamivan],386
9,Cc1onc(-c2ccccc2Cl)c1C(=O)N[C@@H]1C(=O)N2[C@@H]1SC(C)(C)[C@@H]2C(=O)[O-].[Na+] [Cloxacillin sodium salt],380
10,CCOC(=O)n1ccn(C)c1=S [Carbimazole],380
11,Clc1cnccn1 [2-Chloropyrazine],410
12,CCCC[N+]1(C)[C@@H]2C[C@@H](OC(=O)[C@H](CO)c3ccccc3)C[C@H]1[C@@H]1O[C@@H]12.[Br-] (stereo partly drawn) [Butylscopolammonium (n-) bromide],388
13,COc1cc2ncnc(Nc3ccc(F)c(Cl)c3)c2cc1OCCCN1CCOCC1 [Gefitinib],395
14,NC(N)=Nc1nc(CSCCC(N)=NS(N)(=O)=O)cs1 [Famotidine],390
15,Cc1ncc(C[n+]2csc(CCO)c2C)c(N)n1 [Thiamine hydrochloride],383
16,CC(=O)Nc1ccc(O)cc1 [Acetaminophen],385
17,CCCN(CCC)CCc1cccc2c1CC(=O)N2 [Ropinirole HCl],388
18,CC(c1cc2ccccc2s1)N(O)C(N)=O (stereo not drawn) [Zileuton],410

# Same assay, conditions: 1280-compound library screen; […]
row,SMILES,ThS net change
1,CCN(CC)C(C)C(=O)c1ccccc1 (stereo not drawn) [Amfepramone hydrochloride],388
2,CNCC[C@@H](Oc1ccccc1C)c1ccccc1 [Tomoxetine hydrochloride],389
3,C[C@H]1O[C@@H](O[C@H]2[C@@H](O)C[C@H](O[C@H]3[C@@H](O)C[C@H](O[C@H]4CC[C@@]5(C)[C@H](CC[C@@H]6[C@@H]5C[C@@H](O)[C@]5(C)[C@@H](C7=CC(=O)OC7)CC[C@]65O)C4)O[C@@H]3C)O[C@@H]2C)C[C@H](O)[C@@H]1O [Digoxin],404
4,O=[N+]([O-])O[C@H]1CO[C@H]2[C@@H]1OC[C@H]2O[N+](=O)[O-] [Isosorbide dinitrate],405
5,C[N+]1(C)CCOC(O)(c2ccc(-c3ccc(C4(O)C[N+](C)(C)CCO4)cc3)cc2)C1.[Br-].[Br-] (stereo not drawn) [Hemicholinium bromide],379

# Same assay, conditions: flag: p-tau aggregation inhibitor, ThS net change more than 2 SD from mean
row,SMILES,PTAI>2SD
1,CO[C@H]1/C=C/O[C@@]2(C)Oc3c(C)c(O)c4c(O)c(c5c(nc6cc(C)ccn65)c4c3C2=O)NC(=O)/C(C)=C\C=C\[C@H](C)[C@H](O)[C@@H](C)[C@@H](O)[C@@H](C)[C@H](OC(C)=O)[C@@H]1C [Rifaximin],*

# Same assay, conditions: library screen, ThS fluorescence net change over 16 h with p-tau
row,SMILES,ThS net change
1,Cc1ccccc1C(OCCN(C)C)c1ccccc1 (stereo not drawn) [Orphenadrine hydrochloride],295
2,Cc1ccc(C(=O)c2cc(O)c(O)c([N+](=O)[O-])c2)cc1 [Tolcapone],214
3,N[C@@H](Cc1cc(I)c(Oc2cc(I)c(O)c(I)c2)c(I)c1)C(=O)O [Thyroxine (L)],301
4,CO[C@H]1/C=C/O[C@@]2(C)Oc3c(C)c(O)c4c(O)c(c5c(nc6cc(C)ccn65)c4c3C2=O)NC(=O)/C(C)=C\C=C\[C@H](C)[C@H](O)[C@@H](C)[C@@H](O)[C@@H](C)[C@H](OC(C)=O)[C@@H]1C [Rifaximin],112
5,COc1ccc(CN(CCN(C)C)c2ccccn2)cc1 [Pyrilamine maleate],298
6,CC(C)N1CCN(c2ccc(OCC3COC(Cn4cncn4)(c4ccc(Cl)cc4Cl)O3)cc2)CC1 (stereo not drawn) [Terconazole],326
7,COc1ccc(-c2cc(=O)c3c(O)cc(O[C@@H]4O[C@H](CO[C@@H]5O[C@@H](C)[C@H](O)[C@@H](O)[C@H]5O)[C@@H](O)[C@H](O)[C@H]4O)cc3o2)cc1O [Diosmin],211
8,COc1ccc(C(=O)c2ccccc2O)c(O)c1 [Dioxybenzone],296
9,Oc1ccc(C2CNCCc3c2cc(O)c(O)c3Cl)cc1 (stereo not drawn) [Fenoldopam],310
10,CS(=O)(=O)Nc1ccc([N+](=O)[O-])cc1Oc1ccccc1 [Nimesulide],288

# Same assay, conditions: p-tau aggregation modulator screen of 1280-compound library; ThS fluorescence net change
row,SMILES,ThS net change
1,C=CCc1ccccc1OCC(O)CNC(C)C (stereo not drawn) [Alprenolol hydrochloride],376
2,CO[C@@H]1[C@@H](OC(N)=O)[C@@H](O)[C@H](Oc2ccc3c(O)c(NC(=O)c4ccc([O-])c(CC=C(C)C)c4)c(=O)oc3c2C)OC1(C)C.[Na+] [Novobiocin sodium salt],369
3,COc1ccc2c(c1)N(C[C@H](C)CN(C)C)c1ccccc1S2.O=C(O)/C=C\C(=O)O [Methotrimeprazine maleat salt],355
4,O=C(O)Cc1cc(I)c(Oc2ccc(O)c(I)c2)c(I)c1,369
5,Cc1ccc(-c2ncc(Cl)cc2-c2ccc(S(C)(=O)=O)cc2)cn1 [Etoricoxib],376
6,CC(=O)O[C@]1(C(C)=O)CC[C@H]2[C@@H]3C=C(C)C4=CC(=O)CC[C@]4(C)[C@H]3CC[C@@]21C [Megestrol acetate],343
7,O=C1NCC2(CCN(CCc3ccccc3)CC2)O1 [Fenspiride hydrochloride],362
8,N[C@@H](C(=O)N[C@@H]1C(=O)N2C(C(=O)O)=C(Cl)CC[C@H]12)c1ccccc1 [Loracarbef],361
9,Nc1ccc(S(N)(=O)=O)cc1 [Sulfanilamide],355
10,CC1(C)O[C@@H]2C[C@H]3[C@@H]4C[C@H](F)C5=CC(=O)CC[C@]5(C)[C@H]4[C@@H](O)C[C@]3(C)[C@]2(C(=O)CO)O1 [Flurandrenolide],377
11,O=c1c2ccccc2[se]n1-c1ccccc1 [Ebselen],348
12,CCOC(=O)OC(C)OC(=O)[C@@H]1N2C(=O)[C@@H](NC(=O)[C@H](N)c3ccccc3)[C@H]2SC1(C)C (stereo partly drawn) [Bacampicillin hydrochloride],371
13,Cc1ccc(N(CC2=NCCN2)c2cccc(O)c2)cc1 [Phentolamine hydrochloride],334
14,Cc1cc(C(C)(C)C)c(O)c(C)c1CC1=NCCN1 [Oxymetazoline hydrochloride],339
15,CC[C@]12CCCN3CCc4c(n(c5ccccc45)[C@@](O)(C(=O)OC)C1)[C@@H]32 [Vincamine],348
16,CCN(CC)C(=S)SSC(=S)N(CC)CC [Disulfiram],339
17,CN1CCN(C2=Nc3cc(Cl)ccc3Nc3ccccc32)CC1 [Clozapine],368
18,OC(Cn1cncn1)(Cn1cncn1)c1ccc(F)cc1F [Fluconazole],374
19,Clc1ccc(Nc2nnc(Cc3ccncc3)c3ccccc23)cc1 [Vatalanib],356

# Same assay, conditions: p-tau aggregation modulator screen of 1280-compound library; […]
row,SMILES,ThS net change
1,Br.C[N+]1([O-])[C@@H]2C[C@@H](OC(=O)[C@H](CO)c3ccccc3)C[C@H]1[C@@H]1O[C@@H]12 (stereo partly drawn) [Scopolamin-N-oxide hydrobromide],345
2,CN(C)CCC(c1ccc(Cl)cc1)c1ccccn1 (stereo not drawn) [Chlorpheniramine maleate],354

# Same assay, conditions: p-tau aggregation modulator screen of the compound library, ThS fluorescence net change
row,SMILES,ThS net change
1,COc1ccccc1Oc1c(NS(=O)(=O)c2ccc(C(C)(C)C)cc2)nc(-c2ncccn2)nc1OCCO [Bosentan],453
2,COc1ccnc(C[S+]([O-])c2nc3ccc(OC(F)F)cc3[nH]2)c1OC (stereo not drawn) [Pantoprazole sodium],443
3,CC(C)(C)C(=O)OCOC(=O)[C@@H]1N2C(=O)[C@@H](/N=C/N3CCCCCC3)[C@H]2SC1(C)C [Pivmecillinam hydrochloride],423
4,Nc1ccn([C@@H]2O[C@H](CO)[C@@H](O)C2(F)F)c(=O)n1 [Gemcitabine],470
5,CCOC(=O)/C=C(C)/C=C/C=C(C)/C=C/c1c(C)cc(OC)c(C)c1C [Etretinate],420
6,CC(=O)O[C@H]1C(=O)[C@@]2(C)[C@H]([C@H](OC(=O)c3ccccc3)[C@]3(O)C[C@H](OC(=O)[C@H](O)[C@@H](NC(=O)c4ccccc4)c4ccccc4)C(C)=C1C3(C)C)[C@]1(OC(C)=O)CO[C@@H]1C[C@@H]2O [Paclitaxel],437
7,CCC(Cc1c(I)cc(I)c(N)c1I)C(=O)O (stereo not drawn) [Iopanoic acid],464
8,CN(C)C(=N)N=C(N)N [Metformin hydrochloride],415
9,CC1CS(=O)(=O)CCN1/N=C/c1ccc([N+](=O)[O-])o1 (stereo not drawn) [Nifurtimox],588
10,CC[C@@]1(O)C(=O)OCc2c1cc1n(c2=O)Cc2cc3c(CN(C)C)c(O)ccc3nc2-1 [Topotecan],5499
11,NCc1ccc(S(N)(=O)=O)cc1 [Mafenide hydrochloride],415
12,O=C1CC2(CCCC2)CC(=O)N1CCCCN1CCN(c2ncccn2)CC1 [Buspirone hydrochloride],445
13,CNC1(C)C2CCC(C2)C1(C)C (stereo not drawn) [Mecamylamine hydrochloride],418
14,CN(Cc1cc(Br)cc(Br)c1N)C1CCCCC1 [Bromhexine hydrochloride],545
15,CCCCC(C)(O)C/C=C/[C@H]1[C@H](O)CC(=O)[C@@H]1CCCCCCC(=O)OC (mixture of isomers) [Misoprostol],495
16,"Cl.NCC(O)c1ccc(O)cc1 (racemic) [(+,-)-Octopamine hydrochloride]",413
17,Cn1c(=O)c2c(ncn2CC2OCCO2)n(C)c1=O [Doxofylline],451
18,C[C@@H](c1ncncc1F)[C@](O)(Cn1cncn1)c1ccc(F)cc1F [Voriconazole],435
